Assay results taken from patent publication US20250313528A1, “NOVEL COMPOUND AND PHARMACEUTICAL COMPOSITION FOR PREVENTING OR TREATING PULMONARY FIBROSIS COMPRISING SAME AS ACTIVE INGREDIENT” (GIL MEDICAL CENTER, priority 2022, published 2025).

What was measured:
Type in all cases: cell-based, human
fibronectin and α-SMA [1] = assay: Western blotting of fibrosis-related proteins in TGF-β1-induced MRC-5 cells; conditions: MRC-5, TGF-β1 1 ng/ml, 10 μM, FIG. 4b
Method: Since the overexpression of extracellular matrix components such as fibronectin and α-SMA serves as an indicator of fibrotic changes in tissues, MRC-5 cells induced to undergo fibrosis by TGF-β1 were treated with each compound at different concentrations to compare the expression levels of fibronectin and α-SMA.
(§1) Specifically, to extract fibronectin and α-SMA proteins, the cells were washed once with cold PBS and then RIPA buffer (150 mM NaCl, 0.5% Triton X-100, 50 mM Tris-HCl, pH 7.4, 25 mM NaF, 20 mM EGTA), which was added with a protease inhibitor cocktail, was added thereto to lyse the cells. Then, the proteins were quantified using a BCA protein assay kit. All protein samples were subjected to electrophoresis at 10 μg on 8% to 10% PAGE gels and then transferred to 0.2 μm PVDF membranes (EMD Millipore, MA, USA). The membranes to which the protein was transferred were blocked with 5% BSA or 5% skim milk for 1 hour, and then primary antibodies were added thereto and incubated overnight at 4° C. The following day, the membranes were washed three times with PBST, and then HRP-conjugated secondary antibodies were added and reacted at room temperature for 1 hour. The PVDF membranes prepared through such procedures were smeared with ECL (Luminata™ Crescendo, EMD Millipore) and exposed to a fluorescence reader to confirm the level of protein expression.
The specific experimental methods are the same as in Example 2, and sulforaphane was treated at a concentration of 20 μM, Compound 1 at 5 μM, 10 μM, and 20 μM, and Compound 2 at 2.5 μM, 5 μM, and 10 μM, respectively.
(§2) To compare the changes in fibrosis-related protein expression by treating normal MRC-5 and diseased DHLF-IPF cell lines induced with pulmonary fibrosis by TGF-β1 with SFN and the two candidate compounds, Western blotting was performed.
(§3) The specific experimental methods are the same as in Example 2. TGF-β1 was treated at 1 ng/ml to induce fibrosis, and sulforaphane and the two compounds each were treated at a concentration of 10 μM.

FN, COL1A1, and α-SMA [2] = assay: qRT-PCR of fibrosis-related genes in TGF-β1-induced DHLF-IPF cells; conditions: 10 μM pretreatment 1 hour, TGF-β1 1 ng/ml 48 hours, FIG. 4c/4d
Method: (§4) MRC-5 and DHLF-IPF cells were each cultured in growth medium, and the medium was removed. […] The medium was then removed, and the cells were washed once with PBS. Intracellular total RNA was extracted from the cultured cells using TRIzol reagent (TaKaRa Bio Inc., Japan) for gene expression analysis. 1 mL of TRIzol reagent was added to lyse the cells and denature the tissue. The lysate was transferred to each 1.5 mL tube, and 200 μL of chloroform was added thereto, followed by vortexing for 20 seconds to ensure complete mixing. After incubating at room temperature for 15 minutes, the mixture was centrifuged at 14,000 rpm for 20 minutes to obtain the supernatant. After adding an equal volume of isopropyl alcohol, the tubes were inverted and incubated at room temperature for 10 minutes. The sample was centrifuged at 14,000 rpm for 15 minutes to obtain an RNA pellet, which was washed by centrifugation with 70% ethanol for use on RNA at 14,000 rpm for 5 minutes, and dried for 5 minutes. The dried RNA sample was added with 20 μL of distilled water treated with 0.1% diethyl pyrocarbonate (DEPC) to dissolve the pallet and the resultant was used as a sample for cDNA synthesis. 1 μL of the same was used to measure the RNA concentration and purity at O.D. 260/280 nm using a Nanodrop.
(§5) Single-stranded cDNA synthesis was performed by mixing 1 μg of the extracted total RNA with 1 μL of oligo-d(T) primer ([…]) and 10 mM dNTP (TaKaRa Bio Inc., Japan), reacting at 65° C. for 5 minutes, followed by rapid cooling. To this template, 4 μL of 5×RT buffer, 0.5 μL of RNA inhibitor, and 100 units of RTase (TaKaRa Bio Inc., Japan) were added, and the total volume was adjusted to 20 μL using DEPC-treated distilled water. […]
(§6) Each gene expression level was measured using real-time PCR. […] The specificity of the amplified product was confirmed through melting curve analysis, and the target genes were quantified and compared using GAPDH as a control gene.

fibronectin and α-SMA [3] = assay: Western blotting of fibrosis-related proteins in TGF-β1-induced DHLF-IPF cells; conditions: TGF-β1 1 ng/ml, 10 μM, FIG. 4b
Method: as §1, §2, §3

FN, COL1A1, and α-SMA [4] = assay: qRT-PCR of fibrosis-related genes in TGF-β1-induced MRC-5 cells; conditions: MRC-5, 10 μM pretreatment 1 hour, TGF-β1 1 ng/ml 48 hours, FIG. 4c/4d
Method: as §4, §5, §6

C[S+]([O-])CCCCN=C=S (stereo not shown) [sulforaphane, reference compound]
reduced: expression levels of fibronectin and α-SMA protein (fibronectin and α-SMA [1]) | gene expression levels of FN, COL1A1, and α-SMA (FN, COL1A1, and α-SMA [2]) | expression levels of fibronectin and α-SMA protein (fibronectin and α-SMA [3]) | gene expression levels of FN, COL1A1, and α-SMA (FN, COL1A1, and α-SMA [4])
